Results: US20030096394A1, “Laccase activity enhancers” (priority 2001, published 2003)

Tests used:
laccase (NS51003) = assay: Chicago Blue (Direct Blue 1) dye bleaching assay for laccase mediators; format: biochemical, Aspergillus sp.; conditions: potential mediator 0.1 micromole/ml, decrease in absorbance at 610 nm
Protocol: The Chicago Blue Dye, also known as Direct Blue 1 or DB 1, was used to identify these compounds. The Chicago Blue Dye is fully described by Schneider et al. in U.S. Pat. No. 5,885,304, which is hereby incorporated by reference, and has the following formula. [drawing 10]
Each of the test compounds (i.e., potential mediators) was dissolved in water, or in ethanol if the potential mediator was not water soluble, and then mixed with a phosphate buffer and a Chicago Blue solution. […] The change in the absorbance at A610 nm was measured immediately using a UV-VIS spectrophotometer (UV-1201, Shimadzu Scientific Instruments) after the enzyme was added. The decrease in absorbance was recorded at 30-second intervals for 5 minutes and was used to estimate the efficiency of the mediator.
Experiments were conducted at pH levels of 5.5 and 7.0. The last column gives the decrease in absorbance at 610 nm. The larger the decrease in absorbance at 610 nm, the better is the ability to discolor the dye.

[1] = Appearance of potential mediator in water; format: physicochemical
[2] = tested on: laccase (NS51003, Novozymes A/S) and xylanase (Pulpzyme HC, Novozymes A/S); assay: Bleaching of Chicago Blue at pH 7.0 with laccase and xylanase combination; format: biochemical; conditions: mediator 20 μM
Protocol: In the following example, the enzyme enhancing agent N-benzylidenebenzylamine was used as a mediator for a laccase to enhance the bleaching of Chicago Blue at pH 7.0 in the presence of a laccase and a xylanase.
The activity of the xylanase (Pulpzyme HC, Novozymes A/S) is 1000 units per ml enzyme solution. One xylanase unit is defined as the amount of enzyme which, under standard conditions (pH 9.0, 50° C., 30 minutes of incubation), release one micromole of the dye from a dyed RBB xylan.
N-Benzylidenebenzylamine was dissolved in ethanol and then mixed with a phosphate buffer and a Chicago Blue solution. A solution of laccase (NS51003, Novozymes A/S) and xylanase (Pulpzyme HC, Novozymes A/S) was added to make 1 ml of the final solution, containing 20 uM of the mediator, 20 mM buffer at pH 7.0 and Chicago Blue solution, with absorbance at A610 nm between 0.6 to 0.8. After the enzyme was added, the change in the absorbance was measured immediately using a UV spectrophotometer (UV-1201, Shimadzu Scientific Instruments). The decrease in absorbance was recorded after 3 minutes and was used to estimate the results of bleaching.

Row | Structure (SMILES) | ΔmA610 (3 min) (laccase (NS51003); pH 5.5) | Appearance in water ([1]; Table 1 (pH 5.5 series)) | also measured
1 | CCOC(=O)c1ccccc1O [Ethyl Salicylate] | 2 | cloudy | –
2 | COc1ccc(C=CC(=O)O)cc1OC [3,4-Dimethoxycinnamic acid] | 0 | clear | –
3 | O=C(O)C=Cc1ccc([N+](=O)[O-])cc1 [4-Nitrocinnamic acid] | 0 | cloudy | –
4 | COc1ccc(C=CC(=O)O)cc1O [3-Hydroxy-4-methoxycinnamic acid] | 94 | clear | –
5 | O=C(O)C=Cc1ccccc1O [2-Hydroxycinnamic acid] | 5 | clear | –
6 | O=C(O)C=Cc1ccc(O)cc1 [4-Hydroxycinnamic acid] | 42 | clear | –
7 | O=C(O)c1ccccc1O [Salicylic acid] | 11 | clear | –
8 | C(=NCc1ccccc1)c1ccccc1 [N-benzylidene benzylamine] | 28 | clear | ΔmA610 (3 min) (laccase (NS51003); pH 7.0): 2; mA610 (3 min) ([2]; laccase 0% v/v, xylanase 0.5% v/v): 112; mA610 (3 min) ([2]; laccase 0.5% v/v, xylanase 0% v/v): 11; mA610 (3 min) ([2]; laccase 0.5% v/v, xylanase 0.5% v/v): 163; Appearance in water ([1]; Table 2 (pH 7.0 series)): clear
9 | COc1cc(C=CC(=O)O)cc(OC)c1OC [3,4,5-Trimethoxycinnamic acid] | 5 | cloudy | –
10 | O=C(O)C=Cc1ccc(Cl)cc1 [4-Chlorocinnamic acid] | 13 | cloudy | –
11 | COc1ccc(CO)cc1OC [Veratryl alcohol] | 3 | clear | –
12 | O=C(O)C=Cc1cccc(O)c1 [3-Hydroxycinnamic acid] | 7 | clear | –
13 | O=C(O)C=Cc1ccccc1 [Cinnamic acid] | 3 | clear | –
14 | COc1ccc(C=CC(=O)O)cc1 [4-Methoxycinnamic acid] | 6 | cloudy | –
15 | Nc1ccccn1 [2-Aminopyridine] | 3 | light brown | ΔmA610 (3 min) (laccase (NS51003); pH 7.0): 2; Appearance in water ([1]; Table 2 (pH 7.0 series)): light brown
16 | O=C(O)C=Cc1cccc(Cl)c1 [3-Chlorocinnamic acid] | 8 | cloudy | –
17 | COc1cc(C=CC(=O)O)ccc1O [4-Hydroxy-3-methoxycinnamic acid] | 441 | – | –
18 | COc1cc(C=CC(=O)O)cc(OC)c1O [3,5-Dimethoxy-4-hydroxycinnamic acid] | 491 | clear | –
19 | O=C(O)C=Cc1ccccc1Cl [2-Chlorocinnamic acid] | 9 | cloudy | –
20 | Nc1nc(N)nc(N)n1 [Melamine] | 128 | cloudy | –
21 | O=C1Nc2ccccc2C1=O [Isatin] | 6 | clear | –
22 | COc1cccc(C=CC(=O)O)c1 [3-Methoxycinnamic acid] | 4 | clear | –
23 | CN(C)c1ccc(C=CC(=O)O)cc1 [4-(Dimethylamino)cinnamic acid] | 519 | clear, yellow | –
24 | Nc1ccc(C=CC(=O)O)cc1 [4-Aminocinnamic acid] | 43 | clear | –
